Assay results published in article PMC4168215, “Perampanel Inhibition of AMPA Receptor Currents in Cultured Hippocampal Neurons” (PLoS ONE, 2014).
Several values for one entry are separate records, joined by “and”; a condition that tells them apart may be missing. Equal values may be shown once. Read-outs that look alike come from different tables or passages of the source.

Experiments:
AMPA receptors = conditions: rat forebrain membranes; earlier radioligand binding studies; cited from earlier work
AMPA receptor [1] = conditions: cited from earlier work
AMPA receptor [2] = experiment: Whole-cell voltage-clamp recording of AMPA-evoked currents in cultured hippocampal neurons; assay type: cell-based, rat
Procedure: (§1) Primary hippocampal neuronal cultures were prepared as previously described. In brief, timed pregnant rats Sprague-Dawley rats (Charles River Laboratories International, Wilmington, MA, USA) were anesthetized with isoflurane. E18 embryos were obtained and the hippocampi were dissected and treated in Hank’s balanced salt solution (HBSS; Invitrogen, Carlsbad, CA, USA) with trypsin (0.03%, Sigma-Aldrich, St. Louis, MO) for 20 min at 37°C. After inactivation of trypsin with neuronal medium (Neurobasal medium; Invitrogen, Life Technologies, Grand Island, NY, USA) supplemented with NS21, 0.5 mM glutamine, 10 mM HEPES) plus 5% horse serum (HS; Invitrogen), the tissue was washed twice with HBSS, and triturated with a fire-polished Pasteur pipette. After non-dissociated pieces of tissue settled, cells in the supernatant were collected by centrifugation (1100 rpm at 200×g for 3.5 min), re-suspended in neuronal medium plus 5% horse serum, counted, and plated on coverslips (Warner Instruments, Hamden, CT, USA) coated with 0.1% (w/v) poly-L-lysine (Peptides International, Louisville, KY, USA). The cell density was 3×10^4 cm^−2 in plating medium. After 4 h, the medium was replaced with serum-free neuronal medium. Cells were grown in a humidified environment of 95% air/5% CO2 at 37°C. One third of medium was changed after 5 days in vitro (DIV) and weekly thereafter.
(§2) Whole-cell voltage clamp experiments were performed 7–25 days after plating. […]. The pipette solution contained 145 CsCl, 0.1 mM CaCl2, 2 mM MgCl2, 1 mM EGTA, and 5 mM HEPES. For NMDA-mediated currents, recordings were made in a bath solution containing 135 mM NaCl, 5 mM KCl, 0.2 mM CaCl2, 10 mM HEPES, 1 µM TTX, 10 µM bicuculline, 1 µM strychnine, 10 µM NBQX, 3 µM glycine. The pipette solution contained 145 CsCl, 0.1 mM CaCl2, 1 mM EGTA, and 5 mM HEPES.
(§3) Recordings were made with an Axopatch 200B patch-clamp amplifier (Axon Instruments, Foster City, CA, USA). Whole-cell currents were filtered at 2 kHz and digitized at 10 kHz. All neurons were voltage-clamped at −60 mV. The following drugs dissolved in bath solution were applied using a fast perfusion system (VC^3-8XP, ALA Scientific Instrument, NY, USA): kainate (3, 10, 100 µM), AMPA (10, 30, 100 µM), NMDA (10, 100 µM), and perampanel (0.01–30 µM). All were from Sigma-Aldrich except perampanel, which was from Eisai Inc. Solution reservoirs contained the drugs separately or the combination of an agonist (kainate, AMPA or NMDA) plus perampanel. Each solution reservoir was connected to a pinch valve of the 8-channel VC^3-8XP perfusion system, which fed solution to an 8-to-1 mini-manifold (MP-8, Warner Instruments, Hamden, CT) that has a dead-volume of 3.5 µl when switching between solutions. Only one perfusion line was open at a time. The opening speed was 15–20 ms. The command for switching among perfusion lines was generated by the pClamp software and delivered to the control box of the perfusion system via a TTL connection.

AMPA receptor [3] = molecular target: AMPA receptor; set-up: method as in PMID 21635236; conditions: cultured rat cortical neurons; read-out: IC50, inhibition of AMPA-induced Ca2+ influx; cited from earlier work
AMPA receptor [4] = experiment: Whole-cell voltage-clamp recording of kainate-evoked (AMPA receptor) currents in cultured hippocampal neurons; assay type: cell-based, rat; conditions: for percent inhibition of kainate-evoked current: sample current
Procedure: as §1, §2, §3

NMDA receptor [5] = conditions: 30 µM; studies to date; cited from earlier work
kainate receptor = conditions: CA1 area, rat hippocampal slices; cited from earlier work
AMPA receptor [6] = conditions: CA1 area, rat hippocampal slices; read-out: IC50, inhibition of AMPA receptor component of the field response; cited from earlier work
NMDA receptor [7] = conditions: CA1 area, rat hippocampal slices; cited from earlier work
NMDA receptor [8] = experiment: Whole-cell voltage-clamp recording of NMDA-evoked currents in cultured hippocampal neurons; assay type: cell-based, rat
Procedure: as §1, §2
Recordings were made with an Axopatch 200B patch-clamp amplifier (Axon Instruments, Foster City, CA, USA). Whole-cell currents were filtered at 2 kHz and digitized at 10 kHz. All neurons were voltage-clamped at −60 mV. […]

[9] = 1 µM perampanel, 10, 30 and 100 µM AMPA
[10] = 3 µM perampanel and 100 µM AMPA applied simultaneously
[11] = 30 µM perampanel preapplied 5 s then coapplied, 10 and 100 µM NMDA

In the case of `CCN(CC)Cc1cccc(/C=C/c2nc3ccc(F)cc3c(=O)n2-c2ccccc2Cl)n1` [CP-465,022], the “displacement of [3H]perampanel binding” value (AMPA receptors) is listed as “displaced”.

For `CC1=NN=C(c2ccc(N)cc2)c2cc3c(cc2C1)OCO3` [GYKI 52466, 1-(4-amino-phenyl)-4-methyl-7,8-methyl-endioxyl-5H-2,3-benzodiaze pine], the “displacement of [3H]perampanel binding” value (AMPA receptors) is given as “displaced”, the “inhibition of steady AMPA receptor current” value (AMPA receptor [1]; 30 µM) is given as ~50% and the “time in which block occurs” value (AMPA receptor [1]; 30 µM) is given as “several hundred milliseconds”. For the same compound, the association rate (AMPA receptor [1]) was 160000 M⁻¹ s⁻¹ and the dissociation rate (AMPA receptor [1]) was 3.2 s⁻¹.

For `N#Cc1ccccc1-c1cc(-c2ccccn2)cn(-c2ccccc2)c1=O` [Perampanel, 2-(2-oxo-1-phenyl-5-pyridin-2-yl-1,2-dihydropyridin-3-yl)benzonitrile], the “effect on decay time constant of AMPA-evoked currents” value (AMPA receptor [2]; [9]) was “did not alter”, the “effect on peak to late ratio of AMPA-evoked currents” value (AMPA receptor [2]; [9]) was “not statistically different from control” and the “effect on rise time constant of AMPA-evoked currents” value (AMPA receptor [2]; [9]) was “did not alter”. The “reduction of peak AMPA response” value (AMPA receptor [2]; [10]) was 17%, the “time to full block” value (AMPA receptor [2]; [10]) was ≤ 5 s and the “reduction in the peak and late AMPA responses” value (AMPA receptor [2]; 3 µM perampanel started 5 s before 100 µM AMPA) was ~60%. The “time constant (τ) of inhibition of AMPA receptor currents” value (AMPA receptor [2]; 3 µM perampanel, currents evoked by AMPA and kainate) was ~1 s, the “time over which block develops without preexposure” value (AMPA receptor [2]; 3 µM perampanel, kainate- and AMPA-evoked currents (Fig. 3)) was ~3 s and the IC50 (AMPA receptor [2]; 10 µM AMPA, holding −60 mV, perampanel preapplied 5 s then coapplied, read-out: AMPA Response IC50, Peak Current) was 400 nM. It also gave an IC50 (AMPA receptor [2]; 10 µM AMPA, late current at end of 5 s AMPA perfusion, read-out: AMPA Response IC50, Late Current) of 400 nM, an IC50 (AMPA receptor [2]; 30 µM AMPA, holding −60 mV, perampanel preapplied 5 s then coapplied, read-out: AMPA Response IC50, Peak Current) of 800 nM and an IC50 (AMPA receptor [2]; 30 µM AMPA, late current at end of 5 s AMPA perfusion, read-out: AMPA Response IC50, Late Current) of 900 nM. The Kd (AMPA receptor [2]; 100 µM AMPA-evoked currents, read-out: kinetically determined binding affinity (KD = k–1/k1)) was 3900 nM, the “mean off rate determined from the τoff values” (AMPA receptor [2]; 100 µM AMPA, 1, 3 and 10 µM perampanel) was 0.68 s⁻¹ and the “unbinding rate constant k–1 (rate of unblock, dissociation rate)” value (AMPA receptor [2]; 100 µM AMPA, 1, 3 and 10 µM perampanel, intercept of kapp vs concentration) was 0.58 s⁻¹. For the same compound, the “binding rate constant k1 (rate of block, association rate)” value (AMPA receptor [2]; 100 µM AMPA, 1, 3 and 10 µM perampanel, slope of kapp vs concentration) was 1.5×10^5 M^−1 s^−1 and 1.51±0.10×10^5 M^−1 s^−1, the IC50 (AMPA receptor [2]; 100 µM AMPA, holding −60 mV, perampanel preapplied 5 s then coapplied, read-out: AMPA Response IC50, Peak Current) was 900 nM and the IC50 (AMPA receptor [2]; 100 µM AMPA, late current at end of 5 s AMPA perfusion, read-out: AMPA Response IC50, Late Current) was 1200 nM. The IC50 (AMPA receptor [3]) was 93 nM, the “percent inhibition of kainate-evoked current” value (“percent inhibition” below) (AMPA receptor [4]; 0.1 µM perampanel, 100 µM kainate) was 20% and the “percent inhibition” value (AMPA receptor [4]; 0.3 µM perampanel, 100 µM kainate) was 41%. The “percent inhibition” value (AMPA receptor [4]; 1 µM perampanel, 100 µM kainate) was 55%, the IC50 (AMPA receptor [4]; 3 µM kainate, holding −60 mV, perampanel preapplied 5 s then coapplied, read-out: Kainate Response IC50) was 580 nM and the “time constant (τ) of development of block” value (AMPA receptor [4]; 3 µM perampanel started 5 s after onset of 100 µM kainate) was 1.2 ± 0.1 s. For the same compound, the “reduction of the kainate-induced current” value (AMPA receptor [4]; 3 µM perampanel started 5 s before kainate (100 µM), one neuron) was ~73%, the “time constant (τ) of recovery from block” value (AMPA receptor [4]; 3 µM perampanel, 100 µM kainate, after termination of perampanel) was 3.3 ± 1.5 s and the “percent inhibition” value (AMPA receptor [4]; 3 µM perampanel, 100 µM kainate) was 80%. For the same compound, the IC50 (AMPA receptor [4]; 10 µM kainate, holding −60 mV, perampanel preapplied 5 s then coapplied, read-out: Kainate Response IC50) was 510 nM, the IC50 (AMPA receptor [4]; 100 µM kainate, holding −60 mV, perampanel preapplied 5 s then coapplied, read-out: Kainate Response IC50) was 580 nM and the IC50 (AMPA receptor [4]; overall value, similar at all kainate concentrations (3–100 µM), read-out: IC50, block of non-desensitizing kainate-evoked currents) was 560 nM. For the same compound, the “inhibition of NMDA responses” value (NMDA receptor [5]) was “only minimally inhibits”, the “effect on kainate receptor component of the field response” value (kainate receptor) was “without affecting” and the IC50 (AMPA receptor [6]) was 230 nM. For the same compound, the “effect on NMDA receptor component of the field response” value (NMDA receptor [7]) was “without affecting”, the “effect on mean amplitude of late NMDA-evoked current” value (NMDA receptor [8]; [11]) was “failed to affect” and the “effect on mean amplitude of peak NMDA-evoked current” value (NMDA receptor [8]; [11]) was “failed to affect”. For the same compound, the “effect on NMDA receptor currents” value (NMDA receptor [8]; summary statement) was “did not affect”.
